≈ marks a conversion by molar mass, not a printed value. Calls of active or inactive are those of the source. No cut-off for these calls is given here. Bridge positions count the residues as written; N and C are the ends. Peptide text beside a SMILES is read from it. I, II: the chains in the order shown.
Assays:
Staphylococcus aureus [1] = experiment: Antibacterial activity against ethidium bromide-labeled methicillin-resistant Staphylococcus aureus infected in ICR mouse skin administered topically after 4 hrs by confocal microscopic analysis; assay type: functional, organism-based
Staphylococcus aureus [2] = experiment: Drug binding to ethidium bromide-labeled methicillin-resistant Staphylococcus aureus infected in ICR mouse skin administered topically after 4 hrs by confocal microscopic analysis; assay type: ADME, organism-based; conditions: in vivo, topical_or_ocular
Zone of skin [3] = experiment: Drug penetration in ethidium bromide-labeled methicillin-resistant Staphylococcus aureus infected ICR mouse skin administered topically after 4 hrs by confocal microscopic analysis; assay type: ADME, tissue-based; conditions: in vivo, topical_or_ocular
Zone of skin [4] = experiment: Drug penetration in ICR mouse skin administered topically using plastic cylinder by HPLC analysis; assay type: ADME, tissue-based; conditions: in vivo, topical_or_ocular
Staphylococcus aureus [5] = experiment: Antibacterial activity against methicillin-resistant Staphylococcus aureus infected in ICR mouse surgical wound model assessed as reduction of CFU administered topically every 12 hrs for 5 days; assay type: functional
Staphylococcus aureus [6] = experiment: Antibacterial activity against methicillin-resistant Staphylococcus aureus; assay type: functional
Zone of skin [7] = experiment: Drug penetration in ICR mouse skin administered topically using plastic cylinder by immunoblotting; assay type: ADME, tissue-based; conditions: in vivo, topical_or_ocular
Zone of skin [8] = experiment: Drug penetration in ICR mouse skin administered topically using plastic cylinder by fluorescence microscopy; assay type: ADME, tissue-based; conditions: in vivo, topical_or_ocular

Structure (SMILES): CC(C)C[C@H](NC(=O)CNC(=O)[C@H](Cc1cnc[nH]1)NC(=O)[C@H](Cc1cnc[nH]1)NC(=O)[C@H](CC(C)C)NC(=O)[C@H](CC(C)C)NC(=O)[C@H](C)NC(=O)[C@H](CC(N)=O)NC(=O)[C@H](CC(C)C)NC(=O)[C@H](Cc1c[nH]c2ccccc12)NC(=O)[C@@H](N)CCCCN)C(=O)N[C@@H](CC(N)=O)C(=O)N[C@@H](CSSC[C@H](NC(=O)[C@H](CC(N)=O)NC(=O)[C@H](CC(C)C)NC(=O)CNC(=O)[C@H](Cc1cnc[nH]1)NC(=O)[C@H](Cc1cnc[nH]1)NC(=O)[C@H](CC(C)C)NC(=O)[C@H](CC(C)C)NC(=O)[C@H](C)NC(=O)[C@H](CC(N)=O)NC(=O)[C@H](CC(C)C)NC(=O)[C@H](Cc1c[nH]c2ccccc12)NC(=O)[C@@H](N)CCCCN)C(=O)N[C@@H](C)C(=O)N[C@@H](CCCCN)C(=O)NCC(=O)N[C@H](C(=O)N[C@@H](CC(C)C)C(=O)N[C@@H](C)C(N)=O)C(C)C)C(=O)N[C@@H](C)C(=O)N[C@@H](CCCCN)C(=O)NCC(=O)N[C@H](C(=O)N[C@@H](CC(C)C)C(=O)N[C@@H](C)C(N)=O)C(C)C (I: H-KWLNALLHHGLNCAKGVLA-NH2 / II: H-KWLNALLHHGLNCAKGVLA-NH2; disulfide I:13-II:13)
- Activity (Staphylococcus aureus [1]): Active
- Activity (Staphylococcus aureus [2]): Active
- Drug uptake (Zone of skin [3]): Active
- Drug uptake (Zone of skin [4]): Active
- CFU (Staphylococcus aureus [5]): 3
- MIC (Staphylococcus aureus [6]): 4 µg/mL (≈ 0.973 µM)
- Drug uptake (Zone of skin [7]): Active
- Drug uptake (Zone of skin [8]): Active

— ChEMBL document CHEMBL1687859, “Therapeutic efficacy of halocidin-derived peptide HG1 in a mouse model of surgical wound infection with methicillin-resistant Staphylococcus aureus” (Antimicrob Agents Chemother, 2011)
